Test: xn = mol fraction of the nth substance listed
Conditions: Liquid, Vibrating tube method, x1 = 0.33

C[N+](C)(C)CCO.[Cl-] [choline chloride] + OCCO
mass density [kg/m3]
Conditions	298.15 K	303.15 K	308.15 K	313.15 K	318.15 K	323.15 K
100 kPa	1117.4	1114.5	1111.6	1108.7	1105.9	1103
5000 kPa	1119	1116.1	1113.2	1110.3	1107.5	1104.7
10000 kPa	1120.6	1117.7	1114.8	1111.9	1109.1	1106.3
15000 kPa	1122.1	1119.3	1116.4	1113.5	1110.7	1107.9
20000 kPa	1123.6	1120.8	1117.9	1115.1	1112.3	1109.5
25000 kPa	1125.1	1122.3	1119.5	1116.6	1113.8	1111
30000 kPa	1126.6	1123.8	1121	1118.2	1115.4	1112.6
35000 kPa	1128.1	1125.3	1122.5	1119.7	1116.9	1114.1
40000 kPa	1129.6	1126.8	1124	1121.2	1118.4	1115.7
45000 kPa	1131	1128.2	1125.5	1122.7	1119.9	1117.2
50000 kPa	1132.4	1129.6	1126.9	1124.1	1121.4	1118.7

— the NIST ThermoML archive (doi:10.1016/j.tca.2012.07.024)
